One data set has as its system Influenza. It counts as cell-based, influenza virus.
The test system of another data set is PRRS virus. It counts as cell-based.
In the next data set the test system is Bovine Corona virus. It counts as cell-based.
The test system of data set [1] is Ebola virus. Nature of the data set: microbe, parasite or virus in culture. It counts as cell-based.
The test system of data set [2] is Marburg virus. Nature of the data set: organism not typed. The format is cell-based.
Another data set has as its system Hepatitis C Virus. It counts as cell-based.
The subject of the next data set is Dengue serotypes. It counts as cell-based, Dengue virus.
The subject of the next data set is HIV. Nature of the data set: HIV infection in MT-4 cells. The format is cell-based. To be noted: modest concentrations.
A further data set deals with Rift Valley Fever Virus. The format is cell-based.
The subject of another data set is Lassa Fever Virus. It counts as cell-based.
In the next data set the test system is SARS. The format is cell-based.
Data set [3] relates to cowpox virus. Also noted: species or system mice. To be noted: mouse, in vivo.
For the next data set, the system named is PBMC. The experiment in a line: Cytokine levels in PBMC. To be noted: 5 uM dose.
Data set [4] in a line: Serum levels of 365 in BALB/c mice. To be noted: 5 mg/kg dose.
Data set [5] can be described thus: Response of mice to doses of 365 (safety).
For data set [6], the system named is cowpox virus. The format is cell-based.
Data set [7] deals with Ebola virus. Also noted: species or system mice. To be noted: mouse, in vivo.
Data set [8] relates to Marburg virus. Also noted: species or system mice. To be noted: mouse, in vivo.
Another data set relates to West Nile Virus. It counts as cell-based.
Data set [9] has as its system Paramyxoviruses including Parainfluenza and Respiratory Syncitial Virus. The format is cell-based.
The target in a further data set is Caspase 1 (Homo sapiens, UniProt P29466). The format is biochemical.
In the next data set the target is Caspase 2 (Homo sapiens, UniProt P42575). The format is biochemical.
A further data set deals with Caspase 3 (Homo sapiens, UniProt P42574). It counts as biochemical.
The target in a further data set is Caspase 8 (Homo sapiens, UniProt Q14790). It counts as biochemical.
In the next data set the target is Caspase 4 (Homo sapiens, UniProt P49662). Nature of the data set: Caspase inhibition. The format is biochemical.
A further data set deals with Caspase 9 (Homo sapiens, UniProt P55211). The format is biochemical.
The target in a further data set is Caspase 10 (Homo sapiens, UniProt Q92851). Nature of the data set: Caspase inhibition. It counts as biochemical.
Another data set deals with Hepatitis B virus (HBV). The experiment in a line: Hepatitis B virus cell based assay. To be noted: dose response.
For data set [10] the following is noted: mouse, in vivo.
The conditions of data set [11]: mouse, in vivo, ip.
A short description of the next data set: in vivo. To be noted: mouse, ip, 10 mg/kg.
Data set [12] is described as follows: Serum concentration of 723 in guinea pigs. To be noted: guinea pig.
The nature of data set [13]: In vivo safety/toxicity (LD50) study of 723.
The subject of the next data set is wide variety of cells. Nature of the data set: CC50 cytotoxicity of 723 in a variety of cell types. To be noted: cell based assays against a wide variety of cells.

Molecules are shown by their SMILES. Entries after “also recorded” stand apart in the source; their conditions may differ.

Sequence of Caspase 2 (P42575 170-325 limits assumed, species assumed): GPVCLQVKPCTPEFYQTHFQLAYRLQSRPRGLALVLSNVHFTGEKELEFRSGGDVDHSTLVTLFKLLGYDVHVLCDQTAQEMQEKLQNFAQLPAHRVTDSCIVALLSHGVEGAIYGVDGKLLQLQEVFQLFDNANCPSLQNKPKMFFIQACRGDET
Sequence of Caspase 2 (P42575 348-452 limits assumed, species assumed): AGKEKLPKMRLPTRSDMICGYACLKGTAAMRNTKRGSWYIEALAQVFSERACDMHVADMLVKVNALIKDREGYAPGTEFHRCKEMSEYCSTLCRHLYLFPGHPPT
Sequence of Caspase 1 (P29466 120-297 limits assumed, species assumed): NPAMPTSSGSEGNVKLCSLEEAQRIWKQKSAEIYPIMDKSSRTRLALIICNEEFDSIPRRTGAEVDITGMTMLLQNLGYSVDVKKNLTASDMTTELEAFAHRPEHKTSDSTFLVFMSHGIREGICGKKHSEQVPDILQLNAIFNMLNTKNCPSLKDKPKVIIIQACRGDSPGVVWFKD
Sequence of Caspase 1 (P29466 317-404 limits assumed, species assumed): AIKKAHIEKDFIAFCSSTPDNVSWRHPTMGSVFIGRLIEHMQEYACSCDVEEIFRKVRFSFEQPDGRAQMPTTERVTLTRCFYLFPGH
Sequence of Caspase 8 (Q14790 217-374 limits assumed, species assumed): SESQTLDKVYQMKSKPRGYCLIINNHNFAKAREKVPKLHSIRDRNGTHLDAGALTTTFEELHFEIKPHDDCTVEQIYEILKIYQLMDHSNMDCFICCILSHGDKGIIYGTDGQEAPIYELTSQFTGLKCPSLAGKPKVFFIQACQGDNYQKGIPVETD
Sequence of Caspase 8 (Q14790 385-479 limits assumed, species assumed): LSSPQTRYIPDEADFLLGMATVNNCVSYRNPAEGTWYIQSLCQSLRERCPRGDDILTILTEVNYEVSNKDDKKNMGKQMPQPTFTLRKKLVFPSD
Sequence of Caspase 3 (P42574 29-175 limits assumed, species assumed): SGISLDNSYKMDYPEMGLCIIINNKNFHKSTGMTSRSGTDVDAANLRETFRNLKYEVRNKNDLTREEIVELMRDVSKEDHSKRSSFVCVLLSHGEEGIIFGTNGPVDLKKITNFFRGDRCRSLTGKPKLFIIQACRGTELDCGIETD
Sequence of Caspase 3 (P42574 176-277 limits assumed, species assumed): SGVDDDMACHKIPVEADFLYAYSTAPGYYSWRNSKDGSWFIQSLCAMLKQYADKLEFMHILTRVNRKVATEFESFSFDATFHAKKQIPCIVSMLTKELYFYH
Sequence of Caspase 4 (P49662 81-270 limits assumed, species assumed): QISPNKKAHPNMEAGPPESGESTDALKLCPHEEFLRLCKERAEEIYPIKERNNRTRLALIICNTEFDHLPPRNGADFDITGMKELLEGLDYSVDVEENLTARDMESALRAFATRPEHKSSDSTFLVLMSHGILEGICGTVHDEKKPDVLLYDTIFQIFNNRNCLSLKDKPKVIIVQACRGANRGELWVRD
Sequence of Caspase 4 (P49662 290-377 limits assumed, species assumed): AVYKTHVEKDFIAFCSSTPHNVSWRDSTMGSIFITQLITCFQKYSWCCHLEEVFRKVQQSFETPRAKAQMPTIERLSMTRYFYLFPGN
Sequence of Caspase 10 (Q92851 220-415 limits assumed): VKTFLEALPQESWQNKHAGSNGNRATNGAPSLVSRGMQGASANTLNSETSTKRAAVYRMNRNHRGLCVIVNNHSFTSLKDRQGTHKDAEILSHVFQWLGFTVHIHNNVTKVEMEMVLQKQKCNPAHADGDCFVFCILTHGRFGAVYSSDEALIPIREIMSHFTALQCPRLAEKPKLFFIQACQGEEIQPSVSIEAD
Sequence of Caspase 10 (Q92851 416-521 limits assumed): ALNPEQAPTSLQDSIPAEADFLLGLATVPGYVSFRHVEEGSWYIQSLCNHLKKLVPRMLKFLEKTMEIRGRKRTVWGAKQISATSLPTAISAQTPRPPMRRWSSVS
Sequence of Caspase 9 (P55211 1-315 limits assumed, species assumed): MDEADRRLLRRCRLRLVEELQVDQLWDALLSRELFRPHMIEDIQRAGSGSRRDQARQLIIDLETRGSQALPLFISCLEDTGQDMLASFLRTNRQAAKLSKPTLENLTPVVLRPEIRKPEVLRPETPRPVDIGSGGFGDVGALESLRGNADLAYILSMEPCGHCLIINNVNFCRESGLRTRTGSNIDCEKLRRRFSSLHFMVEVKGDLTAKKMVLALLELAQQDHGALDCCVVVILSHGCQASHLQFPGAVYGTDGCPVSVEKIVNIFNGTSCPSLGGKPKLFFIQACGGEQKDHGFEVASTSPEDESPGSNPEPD
Sequence of Caspase 9 (P55211 331-416 limits assumed, species assumed): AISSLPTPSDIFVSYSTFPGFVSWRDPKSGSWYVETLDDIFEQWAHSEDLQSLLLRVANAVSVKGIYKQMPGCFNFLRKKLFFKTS

On to `Cc1cc(NCCCN(C)C)c2ccc3c(ccc4c(NCCCN(C)C)cc(C)nc43)c2n1.Cl.Cl.Cl.Cl` [Compound 365, Quino[8,7-h]quinoline-1,7-diamine,N,N′-bis[3-(dimethylamino)propyl]-3,9-dimethyl-tetrahydrochloride], for which, in the data set on Influenza, the “effectiveness against Influenza infection” value is “effective”. Besides, in the data set with PRRS virus, the EC100 came out at 3.2 µM and the “effectiveness in inhibiting PRRS” value is reported as “showed effectiveness”. The “effectiveness against Bovine Corona virus” value with Bovine Corona virus is listed as “effective; also recorded: inhibited”. The “inhibition of Ebola virus” value with Ebola virus [1] is listed as 100%. In the data set on Marburg virus [2], the “suppression of Marburg Virus” value was “suppressed”. Further, the “inhibition of HCV (luciferase signal)” value in the data set on Hepatitis C Virus was “complete inhibition”. Further, the “effectiveness against Dengue serotypes” value in the data set on Dengue serotypes is “effective”. In the data set with HIV, the “inhibition of HIV” value is recorded as 100%. For the same compound, in the data set on Rift Valley Fever Virus, the EC50 was found to be 370 nM and the “inhibition of Rift Valley Fever Virus (zero viral particle release)” value was found to be 100%. Also, the “inhibition of Lassa Fever Virus” value with Lassa Fever Virus is given as “suppressed”. In addition, in the data set with SARS, the “inhibition of SARS” value is reported as “inhibited”. Besides, in the data set on cowpox virus [3], the survival outcomes is listed as “did not ultimately improve survival outcomes” and the survival times result is recorded as “uniformly extend survival times”. The “cytokine levels relative to agent-free vehicle” value in the data set with PBMC is recorded as “not substantially different”. Besides, in data set [4], the “time course of serum concentration” value is reported as “leaves the serum relatively rapidly”. Moreover, in data set [5], the “dose at which all animals survived” value is “up to 25 mg/kg”. The weight after administration entry in data set [5] (up to 25 mg/kg) is on record as “not significantly impacted”.

On to `N=C(N)c1ccc(-c2ccc(-c3ccc(C(=N)N)cc3)s2)cc1` [Compound 510, benzenecarboxylmidamide,4,4′-(2,5-thiphenediyl)bis], for which the EC50 with cowpox virus [6] is roughly 250 nM. For the same compound, in the data set on Ebola virus [7], the “protection against Ebola virus, therapeutic” value is recorded as “provided protection” and the “protection against lethal challenge” value worked out at 100%. In the data set on Marburg virus [8], the “protection, measured in terms of survival” value was 100%. In the data set on Ebola virus [1], the “inhibition measured in terms of cell survival” value came to 100%. The “inhibition measured in terms of cell survival” value with Marburg virus [2] is 100%. Moreover, in the data set on Hepatitis C Virus, the HCV viral titers entry is given as “zero”. For the same compound, the “inhibition of Lassa Fever Virus” value in the data set with Lassa Fever Virus was “effective”. Also, in the data set on West Nile Virus, the “inhibition of West Nile Virus” value came to 100%. In data set [9], the “protection against Paramyxovirus challenge” value is reported as “effective”. Moreover, the “inhibition of Caspase 1” value on Caspase 1 was “elevated inhibition; also recorded: to some degree”. For the same compound, at Caspase 2, the “inhibition of Caspase 2” value is “elevated inhibition; also recorded: selective inhibition”. The “inhibition of Caspase 3” value at Caspase 3 is given as “selective inhibition”. In addition, on Caspase 8, the “inhibition of Caspase 8” value is “elevated inhibition; also recorded: selective inhibition”. For the same compound, on Caspase 4, the “inhibition of Caspase 4” value is given as “not”. The “inhibition of Caspase 9” value on Caspase 9 is on record as “not”. The “inhibition of Caspase 10” value against Caspase 10 is “not”.

For the compound `N=C(N)c1ccc2oc(C=Cc3nc4ccc(C(=N)N)cc4[nH]3)cc2c1` [Compound 723, 2-[2-(5-carbamimidoyl-benzofuran-2-yl)-vinyl]-3H-benzoimidazole-5-carboxamidine], the “effectiveness against Influenza infection” value with Influenza is on record as “comparatively poorly”. In the data set on PRRS virus, the “effectiveness in inhibiting PRRS” value is “showed effectiveness”. In addition, the “effectiveness against Bovine Corona virus” value in the data set on Bovine Corona virus is on record as “effective”. For the same compound, in the data set on Ebola virus [7], the “protection on challenged mice” value worked out at 90%, the survival is given as 25% and the treated animals survived amounted to 100%. For the same compound, the “protection, measured in terms of survival” value in the data set on Marburg virus [8] is listed as 100%. In the data set with Ebola virus [1], this compound gave an infection inhibition of 100%. Also, the EC50 with Ebola virus [1] (Zaire ebolavirus) was no more than 50 nM. In the data set on Marburg virus [2], the EC50 is no more than 50 nM and the infection inhibition amounted to 100%. The “effectiveness against Dengue serotypes” value in the data set with Dengue serotypes is reported as “effective”. In data set [9], the “protection against Paramyxovirus challenge” value is on record as “effective in conferring a great degree of protection”. In addition, the “effectiveness in treating HBV (reduction in viral copies)” value in the data set on Hepatitis B virus (HBV) was “effectiveness, at nanomolar levels”. In addition, in data set [10], the “t1/2 in mammalian models” value is “two-four”. Besides, in data set [11], the “concentrations in the liver and kidney” value is recorded as “high”; the “concentrations in the spleen and the heart” value is “relatively low”. Moreover, the half-life in “in vivo” is 2 h. In [12], this compound showed a half-life of 4 h. In data set [13] (administered on day zero), this compound displayed a lethal dose of 200 mg/kg. The “impact of dosing on weight over time” value in data set [13] (below 200 mg/kg) is listed as “little or no impact”. Further, in data set [13] (in vivo), the “dose at which compound is well tolerated” value is “up to 100 mg/kg”. Moreover, the CC50 result in the data set with wide variety of cells is on record as “well above safety thresholds”.
